The results in this text go back to patent publication US20240415832A1 (priority 2021, published 2024).

One data set concerns the target D2 (Homo sapiens, UniProt P14416). In kind it is binding.
For the next data set, the target named is SERT (Homo sapiens, UniProt P31645). In kind it is binding.
A further data set deals with 5-HT2A (Homo sapiens, UniProt P28223). In kind it is binding.
A further data set has as its target D1 (Homo sapiens, UniProt P21728). In kind it is binding.
Another data set concerns C57BL/6J mice. As to conditions: mouse, in vivo.
Another data set relates to C57Bl/6 mice. The experiment in a line: Lack of precipitated withdrawal from oxycodone. As to conditions: for total withdrawal signs: oxycodone mice.

One may read the Ki as a dissociation constant, usually derived from enzyme kinetics or from competition with a known ligand.

D2, sequence (P14416 1-414 isoform P14416-2): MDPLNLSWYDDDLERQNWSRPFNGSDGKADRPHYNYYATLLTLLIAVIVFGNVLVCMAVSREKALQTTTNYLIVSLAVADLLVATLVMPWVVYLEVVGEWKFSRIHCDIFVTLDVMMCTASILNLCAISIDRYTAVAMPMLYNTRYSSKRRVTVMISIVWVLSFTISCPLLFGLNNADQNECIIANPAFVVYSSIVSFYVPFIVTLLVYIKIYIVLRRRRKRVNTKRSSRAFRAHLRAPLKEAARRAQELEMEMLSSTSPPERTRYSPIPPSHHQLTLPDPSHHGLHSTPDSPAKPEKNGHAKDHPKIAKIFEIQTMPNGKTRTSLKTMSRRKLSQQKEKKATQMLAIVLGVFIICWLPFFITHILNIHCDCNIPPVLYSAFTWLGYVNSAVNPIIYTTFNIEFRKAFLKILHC
D1, sequence (P21728 whole entry): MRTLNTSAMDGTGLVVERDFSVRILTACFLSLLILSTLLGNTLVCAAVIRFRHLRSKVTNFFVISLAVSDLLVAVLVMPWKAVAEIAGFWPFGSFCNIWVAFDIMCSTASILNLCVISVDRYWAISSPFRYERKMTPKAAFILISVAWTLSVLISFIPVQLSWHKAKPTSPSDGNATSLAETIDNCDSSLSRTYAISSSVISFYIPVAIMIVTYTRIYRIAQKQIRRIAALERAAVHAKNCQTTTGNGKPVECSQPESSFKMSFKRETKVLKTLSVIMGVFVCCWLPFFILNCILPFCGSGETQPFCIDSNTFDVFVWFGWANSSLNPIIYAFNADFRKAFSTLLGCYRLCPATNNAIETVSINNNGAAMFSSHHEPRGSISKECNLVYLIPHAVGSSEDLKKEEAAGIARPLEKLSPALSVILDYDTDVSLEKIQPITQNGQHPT
5-HT2A, sequence (P28223 whole entry): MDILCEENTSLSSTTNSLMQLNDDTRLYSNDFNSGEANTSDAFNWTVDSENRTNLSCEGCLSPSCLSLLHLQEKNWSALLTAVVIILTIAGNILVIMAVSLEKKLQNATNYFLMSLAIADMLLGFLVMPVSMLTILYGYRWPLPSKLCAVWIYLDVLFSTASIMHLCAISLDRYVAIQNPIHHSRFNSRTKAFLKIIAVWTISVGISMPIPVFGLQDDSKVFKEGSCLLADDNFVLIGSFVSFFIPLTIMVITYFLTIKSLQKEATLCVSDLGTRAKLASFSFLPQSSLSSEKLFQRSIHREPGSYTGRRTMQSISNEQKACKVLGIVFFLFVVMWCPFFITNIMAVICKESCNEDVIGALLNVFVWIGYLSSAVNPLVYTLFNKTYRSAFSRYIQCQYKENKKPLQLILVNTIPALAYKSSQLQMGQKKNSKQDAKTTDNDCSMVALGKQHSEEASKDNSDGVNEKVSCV
SERT, sequence (P31645 whole entry, species assumed): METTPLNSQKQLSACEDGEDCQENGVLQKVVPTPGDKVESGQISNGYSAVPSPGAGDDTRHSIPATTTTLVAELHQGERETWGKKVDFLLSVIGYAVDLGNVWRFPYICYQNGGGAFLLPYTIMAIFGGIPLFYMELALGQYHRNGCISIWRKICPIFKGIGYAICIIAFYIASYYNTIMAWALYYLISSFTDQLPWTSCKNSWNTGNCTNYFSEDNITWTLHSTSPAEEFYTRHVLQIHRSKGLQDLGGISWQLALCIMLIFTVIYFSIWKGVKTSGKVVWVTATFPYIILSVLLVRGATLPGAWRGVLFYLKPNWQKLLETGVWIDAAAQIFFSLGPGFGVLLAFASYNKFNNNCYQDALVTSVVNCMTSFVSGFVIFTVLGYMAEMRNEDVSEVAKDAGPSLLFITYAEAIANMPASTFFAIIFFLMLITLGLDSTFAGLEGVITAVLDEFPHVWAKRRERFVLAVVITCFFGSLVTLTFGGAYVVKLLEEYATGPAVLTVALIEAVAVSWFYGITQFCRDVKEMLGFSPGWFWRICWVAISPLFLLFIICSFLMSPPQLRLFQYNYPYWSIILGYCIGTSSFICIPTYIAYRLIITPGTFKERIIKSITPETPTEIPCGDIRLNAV

For the compound `O=C1CN2c3c(cccc3[C@@H]3CN(CCCc4n[nH]c5cc(F)ccc45)CC[C@@H]32)N1` [Example 2, (6bR,10aS)-8-(3-(6-fluoro-1H-indazol-3-yl)propyl)-6b,7,8,9,10,10a-hexahydro-1H-pyrido[3′,4′:4,5]pyrrolo[1,2,3-de]quinoxalin-2(3H)-one], the Ki on D2 was determined as 0.015 µM; on SERT it was 0.54 µM; on 5-HT2A, 0.0026 µM; at D1, 0.0052 µM.
In the case of `C=CCN1CC[C@]23c4c5ccc(O)c4O[C@H]2C(=O)CC[C@@]3(O)[C@H]1C5` [Naloxone], in the data set on C57BL/6J mice, the Jumps is 0, the “Paw Tremors” value is 0.87, the “Total Number of Signs” value turned out to be 2.2 and the “body weight loss” value is reported as 0.5%.
`O=C1CN2c3c(cccc3[C@@H]3CN(CCCOc4ccc(F)cc4)CC[C@@H]32)N1` [Example 1, (6bR,10aS)-8-(3-(4-fluorophenoxy)propyl)-6b,7,8,9,10,10a-hexahydro-1H-pyrido[3′,4′:4,5]pyrrolo[1,2,3-de]quinoxalin-2(3H)-one]: the “somatic signs or loss of body weight” value with C57Bl/6 mice (chronic saline, 17.8 mg/kg s.c., relative to vehicle (p>0.05)) was “does not produce any significant effects”. Moreover, the “number of paw tremors or jumps” value with C57Bl/6 mice (mice chronically administered oxycodone, doses <10 mg/kg s.c., vs vehicle) is on record as “do not differ from mice administered vehicle”. Further, in the data set with C57Bl/6 mice (mice receiving oxycodone chronically, <10 mg/kg), the body weight loss entry is given as “does not induce further body weight loss”. Also, the total withdrawal signs result with C57Bl/6 mice (at 10 mg/kg, p<0.05, mainly wet dog shakes) is “significantly more total withdrawal signs”; in the data set with C57Bl/6 mice (escalating doses (3, 10, 17.8 mg/kg s.c.), p<0.0001), “induced greater total withdrawal signs”.
With `O=C1CN2c3c(cccc3[C@@H]3CN(CCCc4noc5cc(F)ccc45)CC[C@@H]32)N1` [Example 3, (6bR,10aS)-8-(3-(6-fluorobenzo[d]isoxazol-3-yl)propyl)-6b,7,8,9,10,10a-hexahydro-1H-pyrido[3′,4′:4,5]pyrrolo[1,2,3-de]quinoxalin-2(3H)-one], the Ki stood at 0.084 µM at D2, 0.0031 µM on 5-HT2A and 0.013 µM at D1.
